This is an account of results in patent US12018001B2, “Pyrimidine cyclohexenyl glucocorticoid receptor modulators” (priority 2018, dated 2024).

A word on the Ki: it is a measure of affinity in units of concentration, obtained from inhibition or displacement. Read a low Ki as tighter binding.

Molecules are shown by their SMILES.

The assay addresses T1, glucocorticoid receptor (Homo sapiens, UniProt P04150).
T1 construct: host or cells: HepG2
T1 sequence (P04150 1-777): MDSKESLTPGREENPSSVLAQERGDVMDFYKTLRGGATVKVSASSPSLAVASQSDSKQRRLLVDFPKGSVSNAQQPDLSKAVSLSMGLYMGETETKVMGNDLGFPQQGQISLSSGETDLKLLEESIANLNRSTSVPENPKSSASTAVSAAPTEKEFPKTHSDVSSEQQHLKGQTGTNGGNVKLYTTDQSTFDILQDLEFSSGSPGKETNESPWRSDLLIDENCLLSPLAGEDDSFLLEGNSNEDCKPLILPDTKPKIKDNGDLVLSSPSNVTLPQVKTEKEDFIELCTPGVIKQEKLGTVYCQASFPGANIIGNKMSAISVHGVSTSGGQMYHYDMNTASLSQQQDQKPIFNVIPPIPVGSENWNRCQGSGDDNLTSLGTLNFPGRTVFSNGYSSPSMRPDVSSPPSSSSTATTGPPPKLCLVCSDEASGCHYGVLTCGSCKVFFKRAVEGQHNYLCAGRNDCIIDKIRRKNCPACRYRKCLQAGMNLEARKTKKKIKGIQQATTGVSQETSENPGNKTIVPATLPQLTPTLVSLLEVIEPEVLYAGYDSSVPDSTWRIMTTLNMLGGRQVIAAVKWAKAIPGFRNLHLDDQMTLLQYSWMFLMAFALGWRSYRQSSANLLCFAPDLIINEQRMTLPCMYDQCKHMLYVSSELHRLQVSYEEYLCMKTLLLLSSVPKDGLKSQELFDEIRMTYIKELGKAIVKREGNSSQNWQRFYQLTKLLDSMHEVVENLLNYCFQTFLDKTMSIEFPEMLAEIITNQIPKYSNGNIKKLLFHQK
The assay is described as follows: Hep G2 TAT assay: induction of TAT by dexamethasone in HepG2 cells. The class given is cell-based. As to the method:
Glucocorticoid mediated activation of TAT occurs by transactivation of glucocorticoid response elements in the TAT promoter by glucocorticoid receptor-agonist complex.
TAT activity was measured as outlined in the literature by A. Ali et al., J. Med. Chem., 2004, 47, 2441-2452.
HepG2 cells were cultured using MEME media supplemented with 10% (v/v) foetal bovine serum; 2 mM L-glutamine and 1% (v/v) NEAA at 37° C., 5%/95% (v/v) CO2/air. The HepG2 cells were counted and adjusted to yield a density of 0.125×10^6 cells/ml in RPMI 1640 without phenol red, 10% (v/v) charcoal stripped FBS, 2 mM L-glutamine and seeded at 25,000 cells/well in 200 μl into 96 well, sterile, tissue culture micro titre plates, and incubated at 37° C., 5% CO2 for 24 hours
Growth media was removed and replaced with assay media {RPMI 1640 without phenol red, 2 mM L-glutamine+10 μM forskolin}. […] Compounds were serially half log diluted in 100% (v/v) dimethylsulphoxide from a 10 mM stock.
HepG2 cells were then lysed with 30 μl of cell lysis buffer containing a protease inhibitor cocktail for 15 minutes at 4° C. 155 μl of substrate mixture was then added containing 5.4 mM Tyrosine sodium salt, 10.8 mM alpha ketoglutarate and 0.06 mM pyridoxal 5′ phosphate in 0.1 M potassium phosphate buffer (pH 7.4). After 2 hours incubation at 37° C. the reaction was terminated by the addition of 15 μl of 10 M aqueous potassium hydroxide solution, and the plates incubated for a further 30 minutes at 37° C. The TAT activity product was measured by absorbance at λ 340 nm.
[compound] and fitting the data to a 4 parameter logistic equation.

For the compound `Cc1cc(C2=CCC(c3[nH]c(=O)[nH]c(=O)c3Cc3ccccc3)CC2)n(C)n1` (stereo not shown) [Example 63], affinity was put at a Ki of 632 nM.

The compound `O=c1[nH]c(C2CC=C(c3ccc(F)cc3Cl)CC2)c(Cc2ccccc2)c(=O)[nH]1` (stereo not shown) [Example 9] showed a Ki of 26 nM.

`Cn1cc(C2=CCC(c3[nH]c(=O)[nH]c(=O)c3Cc3ccccc3)CC2)c(C(F)(F)F)n1` (stereo not shown) [Example 77] yielded a Ki of 170 nM.

Consider `Cc1c(F)cccc1C1=CCC(c2[nH]c(=O)[nH]c(=O)c2Cc2ccccc2)CC1` (stereo not shown) [Example 24], for which the Ki amounted to 33 nM.

Regarding `Cc1ccc(F)cc1C1=CCC(c2[nH]c(=O)[nH]c(=O)c2Cc2ccccc2)CC1` (stereo not shown) [Example 21], the Ki worked out at 270 nM.

`COc1ccccc1C1=CCC(c2[nH]c(=O)[nH]c(=O)c2Cc2ccccc2)CC1` (stereo not shown) [Example 18] displayed a Ki of 260 nM.

Compound `O=c1[nH]c(C2CC=C(c3cccc(Cl)c3Cl)CC2)c(Cc2ccccc2)c(=O)[nH]1` (stereo not shown) [Example 2] yielded a Ki of 99 nM.

`CCn1nc(C(F)(F)F)cc1C1=CCC(c2[nH]c(=O)[nH]c(=O)c2Cc2ccccc2)CC1` (stereo not shown) [Example 71] registered a Ki of 148 nM. This Ki and that of the compound before are within 1.5-fold of each other.

On to `CCOc1ccc(C2=CCC(c3[nH]c(=O)[nH]c(=O)c3Cc3ccccc3)CC2)c(F)c1F` (stereo not shown) [Example 91], for which the Ki came to 247 nM.

Take `O=c1[nH]c(C2CC=C(c3ccc(Cl)cc3C(F)(F)F)CC2)c(Cc2cccc(C(F)(F)F)c2)c(=O)[nH]1` (stereo not shown) [Example 114, 6-(4′-chloro-2′-(trifluoromethyl)-2,3,4,5-tetrahydro-[1,1′-biphenyl]-4-yl)-5-(3-(trifluoromethyl)benzyl)pyrimidine-2,4(1H,3H)-dione]: the Ki worked out at 121 nM.

Compound `O=c1[nH]c(C2CC=C(c3ccc(OCCO)cc3Cl)CC2)c(Cc2ccccc2)c(=O)[nH]1` (stereo not shown) [Example 86] registered a Ki of 1160 nM.

As to `O=c1[nH]c(C2CC=C(c3ccc(C4CC4)cc3F)CC2)c(Cc2ccccc2)c(=O)[nH]1` (stereo not shown) [Example 111, 5-benzyl-6-(4′-cyclopropyl-2′-fluoro-2,3,4,5-tetrahydro-[1,1′-biphenyl]-4-yl)pyrimidine-2,4(1H,3H)-dione], the Ki came to 113 nM.

`O=c1[nH]c(C2CC=C(c3ccc(C(F)(F)F)nc3N3CCCC3)CC2)c(Cc2ccccc2)c(=O)[nH]1` (stereo not shown) [Example 113]: the Ki amounted to 75 nM.

On to `O=c1[nH]c(C2CC=C(c3ccc(OC(F)(F)F)cc3F)CC2)c(Cc2ccccc2)c(=O)[nH]1` (stereo not shown) [Example 67], for which the Ki is 120 nM.

For the compound `O=c1[nH]c(C2CC=C(c3ccc(C(F)(F)F)cc3F)CC2)c(Cc2ccccc2)c(=O)[nH]1` (stereo not shown) [Example 37], the Ki was determined as 140 nM.

Turning to `Cc1nn(C)cc1C1=CCC(c2[nH]c(=O)[nH]c(=O)c2Cc2ccccc2)CC1` (stereo not shown) [Example 58], the affinity, expressed as Ki, was 520 nM. Compared with the last compound, the Ki is about 3.7-fold higher.

Take `N#Cc1cccc(C2=CCC(c3[nH]c(=O)[nH]c(=O)c3Cc3ccccc3)CC2)c1` (stereo not shown) [Example 33]: the affinity corresponds to a Ki of 740 nM.

Consider `N#Cc1ccc(C2=CC[C@H](c3[nH]c(=O)[nH]c(=O)c3Cc3ccccc3)CC2)c(Cl)c1` (single isomer, unassigned) [Example 39], for which the Ki came out at 69 nM.

As for `O=c1[nH]c(C2CC=C(c3cccnc3C(F)(F)F)CC2)c(Cc2cccc(N3CCCC3)n2)c(=O)[nH]1` (stereo not shown) [Example 51, 5-((6-(Pyrrolidin-1-yl)pyridin-2-yl)methyl)-6-(4-(2-(trifluoromethyl)pyridin-3-yl)cyclohex-3-en-1-yl)pyrimidine-2,4(1H,3H)-dione, formic acid], the Ki came out at 400 nM.

As for `O=c1[nH]c(C2CC=C(c3cccc(C(F)(F)F)c3Cl)CC2)c(Cc2ccccc2)c(=O)[nH]1` (stereo not shown) [Example 36], the Ki is 110 nM.

For `O=C(c1ccc(C2=CCC(c3[nH]c(=O)[nH]c(=O)c3Cc3ccccc3)CC2)c(Cl)c1)N1CCCC1` (stereo not shown) [Example 42, 5-Benzyl-6-(2′-chloro-4′-(pyrrolidine-1-carbonyl)-2,3,4,5-tetrahydro-[1,1′-biphenyl]-4-yl)pyrimidine-2,4(1H,3H)-dione], the affinity, expressed as Ki, was 33 nM.

`Cc1ccc(C2=CCC(c3[nH]c(=O)[nH]c(=O)c3Cc3ccccc3)CC2)c(N2CCCC2)n1` (stereo not shown) [Example 50] showed a Ki of 14 nM. This Ki lies about 2.4-fold lower than the previous one.

As for `CC(C)Cn1nccc1C1=CCC(c2[nH]c(=O)[nH]c(=O)c2Cc2ccccc2)CC1` (stereo not shown) [Example 62], the affinity, expressed as Ki, was 884 nM.

`O=c1[nH]c(C2CC=C(c3c(Cl)cccc3Cl)CC2)c(Cc2ccccc2)c(=O)[nH]1` (stereo not shown) [Example 19] registered an inhibitory constant (Ki) of 32 nM.

With `N#Cc1cc(C(F)(F)F)ccc1C1=CCC(c2[nH]c(=O)[nH]c(=O)c2Cc2ccccc2)CC1` (stereo not shown) [Example 38], the Ki worked out at 75 nM.

Compound `O=c1[nH]c(C2CC=C(c3cccc(Cl)c3C(F)(F)F)CC2)c(Cc2ccccc2)c(=O)[nH]1` (stereo not shown) [Example 35] showed a Ki of 59 nM.

`O=c1[nH]c(C2CC=C(c3cccnc3N3CCCC3)CC2)c(Cc2ccccc2)c(=O)[nH]1` (stereo not shown) [Example 44] yielded a Ki of 45 nM.

Turning to `N#Cc1ccc(Cl)c(C2=CCC(c3[nH]c(=O)[nH]c(=O)c3Cc3ccccc3)CC2)c1` (stereo not shown) [Example 27], affinity was put at a Ki of 210 nM. Against the preceding compound, the Ki is about 4.7-fold higher.

As to `CN(C)S(=O)(=O)c1ccc(C2=CCC(c3[nH]c(=O)[nH]c(=O)c3Cc3ccccc3)CC2)c(F)c1` (stereo not shown) [Example 99], the Ki was found to be 730 nM.

On to `CC(C)Oc1ccc(C2=CCC(c3[nH]c(=O)[nH]c(=O)c3Cc3ccccc3)CC2)c(F)c1` (stereo not shown) [Example 68], for which the affinity, expressed as Ki, was 497 nM.

In turn, `Cn1nccc1C1=CCC(c2[nH]c(=O)[nH]c(=O)c2Cc2ccccc2)CC1` (stereo not shown) [Example 31] showed a Ki of 120 nM.

For the compound `CN1CCN(C(=O)c2ccc(C3=CCC(c4[nH]c(=O)[nH]c(=O)c4Cc4ccccc4)CC3)c(Cl)c2)CC1` (stereo not shown) [Example 41, 5-Benzyl-6-(2′-chloro-4′-(4-methylpiperazine-1-carbonyl)-2,3,4,5-tetrahydro-[1,1′-biphenyl]-4-yl)pyrimidine-2,4(1H,3H)-dione], the Ki stood at 480 nM. This Ki lies about 4-fold higher than the previous one.

In the case of `CCn1nccc1C1=CCC(c2[nH]c(=O)[nH]c(=O)c2Cc2ccccc2)CC1` (stereo not shown) [Example 54], the Ki came out at 1360 nM.

Take `O=c1[nH]c(C2CC=C(c3ccc(OC(F)(F)F)c(F)c3F)CC2)c(Cc2ccccc2)c(=O)[nH]1` (stereo not shown) [Example 92]: the Ki worked out at 803 nM.

Turning to `CS(=O)(=O)c1ccc(C2=CCC(c3[nH]c(=O)[nH]c(=O)c3Cc3ccccc3)CC2)c(C(F)(F)F)c1` (stereo not shown) [Example 74], the Ki was 264 nM.

Compound `CNS(=O)(=O)c1ccc(C2=CCC(c3[nH]c(=O)[nH]c(=O)c3Cc3ccccc3)CC2)c(C(F)(F)F)c1` (stereo not shown) [Example 84] showed a Ki of 259 nM. This Ki and that of the compound before are within 1.5-fold of each other.

In turn, `COc1ccc(C#N)cc1C1=CCC(c2[nH]c(=O)[nH]c(=O)c2Cc2ccccc2)CC1` (stereo not shown) [Example 23] registered a Ki of 330 nM.

For `CCOc1ccc(C2=CCC(c3[nH]c(=O)[nH]c(=O)c3Cc3ccccc3)CC2)c(F)c1Cl` (stereo not shown) [Example 79], affinity was put at a Ki of 530 nM.

The compound `CCOc1ccc(C2=CCC(c3[nH]c(=O)[nH]c(=O)c3Cc3ccccc3)CC2)c(Cl)c1F` (stereo not shown) [Example 90] returned a Ki of 746 nM.

The compound `Cc1ncccc1C1=CCC(c2[nH]c(=O)[nH]c(=O)c2Cc2ccccc2)CC1` (stereo not shown) [Example 25] came in with a Ki of 100 nM.

For the compound `COc1ccc(C2=CCC(c3[nH]c(=O)[nH]c(=O)c3Cc3ccccc3)CC2)c(C(F)(F)F)c1` (stereo not shown) [Example 17], the affinity corresponds to a Ki of 280 nM.

On to `O=c1[nH]c(C2CC=C(c3ccccc3Cl)CC2)c(Cc2ccccc2)c(=O)[nH]1` (stereo not shown) [Example 8], for which the Ki was determined as 52 nM.

The compound `N#Cc1ccccc1C1=CCC(c2[nH]c(=O)[nH]c(=O)c2Cc2ccccc2)CC1` (stereo not shown) [Example 5] showed a Ki of 120 nM.
